Reference: US20110207801A1, “Novel Genes, Compositions, and Methods for Modulating the Unfolded Protein Response” (University of Michigan, priority 2002, published 2011)

Legend:
hsp-3 = hsp-3 expression upon ER stress (Northern blot, quantitative Taqman RT-PCR); type: in vivo, C. elegans; details: wild-type 1.5 day-old L2 larvae, 4 hours
Description: (§1) For Northern analysis, mixed-stage nematodes grown in liquid culture were treated with 3 mM of DTT (Calbiochem) for up to 8 hours. Heat-shock treatment was performed at 30° C. for 1 hour. For single worm analysis, individual L2 larvae grown on plates were treated with 2.5 mM of DTT or 28 μg/ml of tunicamycin (Calbiochem) for 4 hours. To study survival to tunicamycin, gravid adults were allowed to lay eggs on plates containing tunicamycin (0 to 7.5 μg/ml) for 4 hours and then removed from the plates. Eggs were counted and studied 3 days later.
Total RNA preparation and Northern blot analysis was performed as described (Chen et al., 2000). The blot was hybridized sequentially with digoxigenin (DIG)-labeled DNA probes for hsp-3 and for 26S rRNA prepared with DIG-high prime labeling Kit (Roche).
Taqman RT-PCR was performed as described by Heid et al. (1996). The lack of DNA contamination in RNA preparations was confirmed by a 1000-fold decrease in quantitative PCR yield when reverse transcriptase was omitted. A unique sequence in the 3′UTR of act-1 and act-3 was amplified using Taqman PCR (primers act-F/act-R and act-probe). The primers (hsp-3-F/hsp-3-R) and the hsp-3-probe probe were used for detecting hsp-3 transcripts. The primers (hsp-4-F and hsp-4-R) and the hsp-4-probe probe were used for detecting hsp-4 transcripts. […]

hsp-4 = hsp-4 expression upon ER stress (quantitative Taqman RT-PCR); type: in vivo, C. elegans; details: wild-type 1.5 day-old L2 larvae, 4 hours
Description: as §1
Taqman RT-PCR was performed as described by Heid et al. (1996). The lack of DNA contamination in RNA preparations was confirmed by a 1000-fold decrease in quantitative PCR yield when reverse transcriptase was omitted. A unique sequence in the 3′UTR of act-1 and act-3 was amplified using Taqman PCR (primers act-F/act-R and act-probe). The primers (hsp-3-F/hsp-3-R) and the hsp-3-probe probe were used for detecting hsp-3 transcripts. The primers (hsp-4-F and hsp-4-R) and the hsp-4-probe probe were used for detecting hsp-4 transcripts. The relative expression of hsp-3 and hsp-4 was normalized to the average signals of act-1/act-3.

Xbp1 mRNA [1] = assay: Northern blot analysis of Xbp1 mRNA in CHO cells; type: cell-based, Chinese hamster; details: 2 μg/ml, 16 hours
Description: (§2) FIG. 17E depicts a Northern blot analysis of BiP and Xbp1 mRNA in S2P-deficient cells. Wild-type and S2P-deficient CHO cells were treated with or without 2 μg/ml tunicamycin for 16 hours prior to harvesting total RNA for Northern blot analysis using hamster BiP, XBP1-u and β-actin cDNA as probes.
(§3) Southern and Northern blot analysis followed standard procedures (Sambrook et al., 1989). [^32P]-labeled probes were prepared using a random prime labeling system (Amersham Pharmacia, Piscataway, N.J.). A 0.5-kb BamHI-XhoI fragment from the BS-mIRE1α targeting vector or a 3.6-kb EcoRI-XbaI fragment from pED-hIRE1α cDNA (Tirasophon et al., 2000) were used for Southern and Northern analysis, respectively. The probes for Northern analysis of mXbp1, BiP and GRP94 were a 0.94-kb XhoI fragment of pcDNA-mXbp1-u, the EcoRI-PstI fragment of hamster BiP (Ting et al., 1987), and a 146-bp PCR fragment of mouse GRP94 (from 142 to 287 of the coding region), respectively.

IRE1 [2] = assay: XBP1-EGFP reporter of IRE1 activation in murine embryonic fibroblast cells; type: cell-based
Source text: (§4) COS-1 monkey cells were transfected by either diethylaminoethyl (DEAE)-dextran (Kaufman, 1997) or Calcium Phosphate-BES methods (Ausubel et al, 1999). Chinese hamster ovary (CHO) cells were transfected by either lipofectAMINE PLUS (Life Technology) or FuGENE6 (Roche). Murine embryonic fibroblasts (MEFs) were transfected by either FuGENE6 (Roche) or Effectine (QIAGEN). IRE1 activation was monitored by immunoprecipitation and western analysis.
(§5) XBP1 splicing was also monitored by RT-PCR analysis of RNAs using primers designed to amplify the region encompassing the overlap between open reading frame 1 (ORF1) and ORF2 within XBP1 mRNA (see Lee et al., Genes and Dev. 2002). XBP1 splicing may also be monitored by assessing the expression of a reporter gene that is regulated by splicing of the XBP1 intron. The coding region of EGFP, Luciferase or β-galactosidase was fused to the mouse XBP1 ORF1 downstream of the XBP1 intron. Transcription of the construct is under control of the constitutively expressed CMV promoter. Therefore, expression of the XBP1-EGFP, XBP1-Luciferase or XBP1-β-galactosidase fusion protein is regulated by splicing of the XBP1 intron.
(§6) At 48 hours after transfection, cells were treated with 10 ug/ml tunicamycin to inhibit N-linked glycosylation. […] Therefore, this construct is instrumental in monitoring IRE1 activation.

IRE1 [3] = assay: XBP1-EGFP reporter of IRE1 activation in COS-1 cells; type: cell-based, monkey; details: 10 ug/ml, after 8 and 16 hours
Source text: as §4, §5, §6

Xbp1 mRNA [4] = assay: Northern blot analysis of Xbp1 mRNA in MEFs; type: cell-based, mouse; details: 10 μg/ml, 6 hr
Description: FIG. 15F depicts a Northern blot analysis of Xbp1 mRNA in IRE1α-null MEFs. Wild-type and IRE1α-null MEFs were treated with or without 10 μg/ml tunicamycin for 6 hr prior to harvesting total RNA for Northern blot analysis. The blots were probed with [α-^32P]-labeled 0.94-kb XhoI fragment of XBP1-u and [β-actin cDNA.
as §3

BiP mRNA [5] = assay: Northern blot analysis of BiP mRNA in CHO cells; type: cell-based, Chinese hamster; details: 2 μg/ml, 16 hours
Description: as §2, §3

BiP mRNA [6] = assay: Northern blot analysis of BiP mRNA in MEFs; type: cell-based, mouse; details: tunicamycin for 6 hr
Description: (§7) FIGS. 12E and 12F depict a Northern blot analysis of wild-type and IRE1α-null MEFs. One blot was probed with [α-^32P]-labeled hamster BiP cDNA and β-actin cDNA (E) and another blot was probed with [α-^32P]-labeled mouse GRP94 DNA and β-actin cDNA (F).
as §3

C. elegans = assay: survival to tunicamycin (eggs laid on plates, studied after 3 days); type: in vivo; details: for animals arrested at or prior to the L3 stage / animals matured to the L4 stage or older / dead animals: after 3 days
Source text: Eggs from each strain were laid on plates containing different concentrations of tunicamycin, counted, and studied after 3 days. The number of eggs studied is listed above each column. The X-axis represents tunicamycin concentration. The total worm population was grouped into three fractions: animals that matured to L4 or older, animals that arrested at or prior to the L3 stage, and dead animals. Each fraction was plotted as the percentage of total eggs laid (Y-axis).
as §1

GRP94 mRNA = assay: Northern blot analysis of GRP94 mRNA in MEFs; type: cell-based, mouse; details: 10 μg/ml, 6 hr
Description: as §7, §3

## O[C@H](CS)[C@H](O)CS (racemic) [DTT, dithiothreitol]
hsp-3; DTT 2.5 mM
  hsp-3 induction: ~9.3 fold
hsp-4; DTT 2.5 mM
  hsp-4 induction: 61 fold

## tunicamycin
hsp-3; tunicamycin 28 μg/ml
  hsp-3 induction: ~3.9 fold
Xbp1 mRNA [1]; S2P-deficient CHO cells
  Xbp1 mRNA induction: 2.9 fold
Xbp1 mRNA [1]; wild-type CHO cells
  Xbp1 mRNA induction: 3.1 fold
IRE1 [2]; control murine embryonic fibroblast cells
  fluorescence of cells expressing the XBP1-EGFP construct: intense fluorescsence
IRE1 [2]; murine embryonic fibroblast cells deleted in both IRE1α alleles
  fluorescence of cells expressing the XBP1-EGFP construct: no fluorescence was detected
IRE1 [3]
  fluorescence of cells transfected with the XBP1-EGFP construct: bright fluoresence
Xbp1 mRNA [4]; IRE1α-null MEFs
  Xbp1 mRNA induction: 4.0 fold
Xbp1 mRNA [4]; wild-type MEFs
  Xbp1 mRNA induction: 3.1 fold
BiP mRNA [5]; S2P-deficient CHO cells
  BiP mRNA induction: 2.6 fold
BiP mRNA [5]; wild-type CHO cells
  BiP mRNA induction: 34 fold
hsp-4; tunicamycin 28 μg/ml
  hsp-4 induction: 29 fold
BiP mRNA [6]
  reduction of BiP mRNA induction in IRE1α-null MEFs compared with wild-type: 10%
C. elegans; IRE1(v33) mutants, 2 μg/ml
  animals arrested at or prior to the L3 stage: 60%
  animals matured to the L4 stage or older: 9%
  dead animals: 31%
C. elegans; N2, 5 μg/ml
  animals arrested at or prior to the L3 stage: 29%
  animals matured to the L4 stage or older: 8%
  dead animals: 63%
C. elegans; N2, plates with 0 to 7.5 μg/ml
  concentration at which growth of N2 animals was affected: ≥ 5 µg/mL
C. elegans; PEK1(ok275) mutants, 2 μg/ml
  animals arrested at or prior to the L3 stage: 31%
  animals matured to the L4 stage or older: 35%
  dead animals: 34%
GRP94 mRNA; IRE1α-null MEFs
  GRP94 mRNA induction: 5.4 fold
GRP94 mRNA; wild-type MEFs
  GRP94 mRNA induction: 6.7 fold
